Results as given in ChEMBL document CHEMBL3739327, “Novel indole-based sigma-2 receptor ligands: synthesis, structureaffinity relationship and antiproliferative activity” (Medchemcomm, 2015).
Activity calls are given as the source filed them. The calls are words filed in the database; no cut-off is given here.

Key:
Rattus norvegicus = organism: Rattus norvegicus; assay: Selectivity ratio of Ki for sigma 1 receptor in rat brain to Ki for sigma 2 receptor in rat liver membrane; format: cell membranes
[1] = Displacement of [3H]-DTG from sigma 2 receptor in rat liver membrane by competition binding assay in presence of dextrallorphan; format: cell membranes
[2] = target: Sigma non-opioid intracellular receptor 1 (Rattus norvegicus, UniProt Q9R0C9); assay: Displacement of [3H]-(+)-pentazocine from sigma 1 receptor in rat brain by competition binding assay; format: tissue-based
MCF7 [3] = assay: Antiproliferative activity against human MCF7 cells assessed as reduction in cell viability after 48 hrs by MTT assay; format: functional, cell-based; settings: MCF7, 48 h
[4] = Cell cycle arrest in human DU145 cells assessed as accumulation at S phase at 40 uM after 24 hrs by propidium iodide staining-based flow cytometry (reference value: 38.6 %); format: functional; settings: DU-145
MCF7 [5] = assay: Antiproliferative activity against human MCF7 cells assessed as reduction in cell viability after 24 hrs by MTT assay; format: functional, cell-based; settings: MCF7, 24 h
[6] = Selectivity ratio of Ki for sigma 1 receptor in guinea pig brain membrane to Ki for sigma 2 receptor in rat liver membrane; format: cell membranes
[7] = Cell cycle arrest in human DU145 cells assessed as accumulation at G1 phase at 40 uM after 24 hrs by propidium iodide staining-based flow cytometry (reference value: 58.2 %); format: functional; settings: DU-145
C6 = assay: Antiproliferative activity against rat C6 cells assessed as reduction in cell viability after 24 hrs by MTT assay; format: functional, cell-based; settings: C6, 24 h
[8] = Antiproliferative activity against human DU145 cells assessed as reduction in cell viability after 24 hrs by MTT assay; format: functional, cell-based; settings: DU-145, 24 h
[9] = Cell cycle arrest in human DU145 cells assessed as accumulation at G1 phase after 24 hrs by propidium iodide staining-based flow cytometry; format: functional; settings: DU-145
[10] = Cell cycle arrest in human DU145 cells assessed as accumulation at G1 phase at 30 uM after 24 hrs by propidium iodide staining-based flow cytometry (reference value: 58.2 %); format: functional; settings: DU-145
[11] = Cell cycle arrest in human DU145 cells assessed as accumulation at S phase at 30 uM after 24 hrs by propidium iodide staining-based flow cytometry (reference value: 38.6 %); format: functional; settings: DU-145
[12] = target: Sigma non-opioid intracellular receptor 1 (Cavia porcellus, UniProt Q60492); assay: Displacement of [3H]-(+)-pentazocine from sigma-1 receptor in guinea pig brain membrane by competition binding assay; format: cell membranes
MDA-MB-435 [13] = assay: Induction of apoptosis in human MDA-MB-435 cells assessed as decreased cyclin D1 expression at 10 uM incubated for 24 hrs by Western blot analysis; format: functional, cell-based; settings: TDE = time-dependent effect
[14] = Cell cycle arrest in human DU145 cells assessed as accumulation at G1 phase at 15 to 25 uM after 24 hrs by propidium iodide staining-based flow cytometry (reference value: 58.2 %); format: functional; settings: DU-145
MDA-MB-435 [15] = assay: Induction of apoptosis in human MDA-MB-435 cells assessed as decreased phospho-Rb expression at 10 uM incubated for 24 hrs by Western blot analysis; format: functional, cell-based
[16] = Displacement of [3H]-DTG from sigma 2 receptor in rat brain by competition binding assay; format: tissue-based
MDA-MB-435 [17] = assay: Induction of apoptosis in human MDA-MB-435 cells assessed as decreased cyclin B1 expression at 10 uM incubated for 24 hrs by Western blot analysis; format: functional, cell-based

Sigma non-opioid intracellular receptor 1 (Rattus norvegicus, UniProt Q9R0C9), sequence (Q9R0C9 whole entry): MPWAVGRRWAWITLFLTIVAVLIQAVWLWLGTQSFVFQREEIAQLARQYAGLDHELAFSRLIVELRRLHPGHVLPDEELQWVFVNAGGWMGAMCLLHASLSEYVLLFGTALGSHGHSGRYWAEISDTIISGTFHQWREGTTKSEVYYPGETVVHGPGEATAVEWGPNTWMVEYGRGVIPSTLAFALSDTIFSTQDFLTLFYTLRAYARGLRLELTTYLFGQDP
Sigma non-opioid intracellular receptor 1 (Cavia porcellus, UniProt Q60492), sequence (Q60492 whole entry): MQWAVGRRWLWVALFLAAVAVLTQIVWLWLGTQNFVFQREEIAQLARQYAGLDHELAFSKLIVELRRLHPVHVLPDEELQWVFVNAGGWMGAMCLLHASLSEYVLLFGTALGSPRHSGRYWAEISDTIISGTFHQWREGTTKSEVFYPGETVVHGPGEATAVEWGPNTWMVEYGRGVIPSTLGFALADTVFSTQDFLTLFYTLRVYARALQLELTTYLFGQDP

Which results are given for `COc1cc2c(cc1OC)CN(CCCCC(=O)c1ccc(F)cc1)CC2`?
Ratio Ki (Rattus norvegicus): 1.3; Ki [1]: 12.4 nM; Ki [2]: 16.6 nM

For `COc1cc2c(cc1OC)CN(CCCCn1cc(CCCF)c3ccccc31)CC2`, which Ratio Ki (Rattus norvegicus) is on record?
The Ratio Ki was 9.2.

And the Ki [1]?
Its Ki is 28.5 nM.

And the Ki [2]?
The Ki was 263 nM.

Which EC50 (MCF7 [3]) does the source give for `COc1cc2c(cc1OC)CN(CCCCc1cn(-c3ccc(F)cc3)c3ccccc13)CC2` here?
The EC50 was 17800 nM.

And the Activity [4]?
The Activity was 15.9%.

What about the EC50 (MCF7 [5]) of the same compound?
The EC50 was 20900 nM.

What about the Ratio Ki [6] of the same compound?
Its Ratio Ki is 260.

What about the Activity [7] of the same compound?
The Activity was 84.1%.

What about the EC50 (C6) of the same compound?
The EC50 was 76500 nM.

And the Ratio Ki (Rattus norvegicus)?
The Ratio Ki was 10.8.

What about the Ki [1] of the same compound?
Its Ki is 49.2 nM.

And the EC50 [8]?
Its EC50 is 28800 nM.

And the Activity [9]?
Its Activity is “Dose-dependent effect”.

What about the Ki [2] of the same compound?
Its Ki is 531 nM.

With `COc1cc2c(cc1OC)CN(CCCCn1cc(CCF)c3ccccc31)CC2` as the compound, how does the Ratio Ki (Rattus norvegicus) read?
Its Ratio Ki is 17.9.

What about the Ki [1] of the same compound?
Its Ki is 27.5 nM.

And the Ki [2]?
Its Ki is 493 nM.

With `COc1cc2c(cc1OC)CN(CCCCc1cn(-c3ccc(F)cc3)c3ccccc13)C2` as the compound, how does the EC50 (MCF7 [5]) read?
Its EC50 is 17000 nM.

And the Activity [10]?
Its Activity is 80.5%.

What about the EC50 (C6) of the same compound?
The EC50 was 44100 nM.

What about the Ratio Ki (Rattus norvegicus) of the same compound?
The Ratio Ki was 4.8.

What about the Ki [1] of the same compound?
The Ki was 53.8 nM.

What about the EC50 [8] of the same compound?
The EC50 was 26900 nM.

And the Activity [9]?
The Activity was “Dose-dependent effect”.

What about the Ki [2] of the same compound?
The Ki was 256 nM.

And the Activity [11]?
The Activity was 19.3%.

What does the source list for `FCCOCCOCCOc1ccc(N2CCN(CCCCc3cn(-c4ccc(F)cc4)c4ccccc34)CC2)cc1`?
Ratio Ki (Rattus norvegicus): 1.1; Ki [1]: 1880 nM; Ki [2]: 2160 nM

Which results are given for `FCCc1cn(CCCCN2CCC3(CC2)OCc2ccccc23)c2ccccc12`?
Ratio Ki (Rattus norvegicus): 0.4; Ki [1]: 29.8 nM; Ki [2]: 11 nM

With `Fc1ccc(-n2cc(CCCCN3CCC4(CC3)OCc3ccccc34)c3ccccc32)cc1` [SIRAMESINE] as the compound, how does the Ki [12] read?
The Ki was 10.5 nM.

And the EC50 (MCF7 [3])?
The EC50 was 12300 nM.

What about the EC50 (MCF7 [5]) of the same compound?
The EC50 was 23600 nM.

And the Activity (MDA-MB-435 [13])?
Its Activity is “tde”.

What about the Activity [14] of the same compound?
The Activity was 75.7%.

What about the EC50 (C6) of the same compound?
The EC50 was 43100 nM.

And the Ki [1]?
The Ki was 3.08 nM.

What about the EC50 [8] of the same compound?
Its EC50 is 13900 nM.

And the Activity [9]?
Its Activity is “Dose-dependent effect”.

What about the Activity (MDA-MB-435 [15]) of the same compound?
The Activity was “Active”.

What about the IC50 [16] of the same compound?
The IC50 was 0.12 nM.

And the Activity (MDA-MB-435 [17])?
The Activity was “Active”.

With `FCCOCCOc1ccc(N2CCN(CCCCc3cn(-c4ccc(F)cc4)c4ccccc34)CC2)cc1` as the compound, how does the Ratio Ki (Rattus norvegicus) read?
Its Ratio Ki is 2.4.

And the Ki [1]?
The Ki was 458 nM.

And the Ki [2]?
Its Ki is 1110 nM.

Which Ratio Ki (Rattus norvegicus) does the source give for `FCCOc1cccc(N2CCN(CCCCc3cn(-c4ccc(F)cc4)c4ccccc34)CC2)c1` here?
The Ratio Ki was 5.3.

What about the Ki [1] of the same compound?
The Ki was 48.4 nM.

And the Ki [2]?
Its Ki is 257 nM.

With `N#CC1(c2ccccc2)CCN(CCCCc2cn(-c3ccc(F)cc3)c3ccccc23)CC1` as the compound, how does the Ratio Ki (Rattus norvegicus) read?
The Ratio Ki was 0.9.

And the Ki [1]?
The Ki was 3.03 nM.

What about the Ki [2] of the same compound?
Its Ki is 2.58 nM.

With `FCCOc1ccc(N2CCN(CCCCc3cn(-c4ccc(F)cc4)c4ccccc34)CC2)cc1` as the compound, how does the Ratio Ki (Rattus norvegicus) read?
The Ratio Ki was 9.

What about the Ki [1] of the same compound?
Its Ki is 68 nM.

What about the Ki [2] of the same compound?
Its Ki is 614 nM.

Which results are given for `FCCn1cc(CCCCN2CCC3(CC2)OCc2ccccc23)c2ccccc21`?
Ratio Ki (Rattus norvegicus): 5.6; Ki [1]: 44 nM; Ki [2]: 246 nM

Which results are given for `N#CC1(c2ccccc2)CCN(CCCCc2cn(-c3ccc(I)cc3)c3ccccc23)CC1`?
Ratio Ki (Rattus norvegicus): 20.9; Ki [1]: 18.5 nM; Ki [2]: 386 nM
